# Data: PMC12207590, “Substrate Specificity of the Organic Cation Transporters MATE1 and MATE2K and Functional Overlap with OCT1 and OCT2” (Journal of Medicinal Chemistry, 2025)
# Where two headings read alike, the source gives them in different places.
# What was measured:
# MATE1 [1] = target: T1, MATE1 (Homo sapiens, UniProt Q96FL8); conditions: for MATE1 Clint: human, pH 7.4
# T1 sequence (Q96FL8 1-570): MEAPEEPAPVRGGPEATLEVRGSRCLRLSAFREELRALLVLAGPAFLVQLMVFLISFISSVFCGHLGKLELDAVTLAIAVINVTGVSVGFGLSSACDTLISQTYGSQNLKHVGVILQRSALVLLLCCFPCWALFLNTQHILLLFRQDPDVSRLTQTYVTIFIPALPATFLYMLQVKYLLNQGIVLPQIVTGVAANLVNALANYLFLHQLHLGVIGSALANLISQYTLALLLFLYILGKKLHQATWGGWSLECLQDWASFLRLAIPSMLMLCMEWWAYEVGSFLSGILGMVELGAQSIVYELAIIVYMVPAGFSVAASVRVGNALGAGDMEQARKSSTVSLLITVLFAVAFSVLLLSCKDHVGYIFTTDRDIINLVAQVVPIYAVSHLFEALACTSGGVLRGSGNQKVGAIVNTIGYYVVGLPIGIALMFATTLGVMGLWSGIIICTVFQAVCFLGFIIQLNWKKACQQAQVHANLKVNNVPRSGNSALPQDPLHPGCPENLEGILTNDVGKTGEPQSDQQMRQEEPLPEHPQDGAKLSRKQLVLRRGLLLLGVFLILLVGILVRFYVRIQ
# MATE2K [2] = target: T2, MATE2K (Homo sapiens, UniProt Q86VL8); assay: in vitro; conditions: other cell line, pH 7.4
# MATE2K [3] = target: T2, MATE2K; assay: Concentration-dependent uptake (Michaelis-Menten) via MATE2K in HEK293 cells; conditions: HEK293, 1 min, net uptake; for Km: read-out: MATE2K KM
# MATE1 [4] = target: T1, MATE1; assay: Concentration-dependent uptake (Michaelis-Menten) via MATE1 in HEK293 cells
# MATE1 [5] = target: T1, MATE1; assay: in vitro; conditions: other cell line, pH 7.4
# MATE1 [6] = target: T1, MATE1; assay: Uptake ratio in MATE1-overexpressing HEK293 cells vs empty vector (2.5 μM, 1 min, HPLC-MS/MS); type: cell-based; parameters: key to MATE1 substrate*: 1 = substrate; 0 = no substrate; conditions: for MATE1 (uptake ratio): mean ratio of uptake in MATE1-overexpressing HEK293 cells vs empty vector; for MATE1 substrate*: Table S4; for MATE1: uptake ratio MATE1-overexpressing vs empty-vector HEK293 cells, mean
# MATE2K [7] = target: T2, MATE2K; assay: Uptake ratio in MATE2K-overexpressing HEK293 cells vs empty vector (2.5 μM, 1 min, HPLC-MS/MS); type: cell-based; parameters: key to MATE2 substrate*: 1 = substrate; 0 = no substrate; conditions: for MATE2 (uptake ratio): mean ratio of uptake in MATE2K-overexpressing HEK293 cells vs empty vector; for MATE2 substrate*: Table S4; for MATE2: uptake ratio MATE2K-overexpressing vs empty-vector HEK293 cells, mean
# [8] = human; cited from earlier work
# renal MATE1 = conditions: 800 mg cimetidine; cited from earlier work
# OCT2 = target: T3, OCT2 (Homo sapiens, UniProt O15244); assay: Uptake in OCT2-overexpressing HEK293 cells (substrate yes/no); type: cell-based; parameters: key: 1 = substrate; 0 = no substrate; conditions: Table S4
# T3 sequence (O15244 1-555): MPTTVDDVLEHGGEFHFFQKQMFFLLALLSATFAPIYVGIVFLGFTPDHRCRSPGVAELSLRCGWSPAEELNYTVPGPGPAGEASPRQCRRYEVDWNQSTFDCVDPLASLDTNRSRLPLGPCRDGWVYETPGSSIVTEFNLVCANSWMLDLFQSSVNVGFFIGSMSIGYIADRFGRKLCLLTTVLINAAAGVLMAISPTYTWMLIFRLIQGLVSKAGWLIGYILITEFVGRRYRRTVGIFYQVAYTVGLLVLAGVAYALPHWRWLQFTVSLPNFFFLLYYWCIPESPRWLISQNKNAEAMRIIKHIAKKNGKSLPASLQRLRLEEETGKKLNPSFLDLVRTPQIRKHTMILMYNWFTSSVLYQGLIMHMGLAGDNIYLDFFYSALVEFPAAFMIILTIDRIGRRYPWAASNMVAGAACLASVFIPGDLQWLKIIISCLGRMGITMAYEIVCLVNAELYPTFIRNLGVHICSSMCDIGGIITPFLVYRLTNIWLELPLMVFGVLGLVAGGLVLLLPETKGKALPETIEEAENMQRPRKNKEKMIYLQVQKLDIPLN
# Experimental: (§1) The cell lines were generated using the recombinant site-specific Flp-In^TM system as previously described. , All cell lines used in the transport experiments were cultured at 37 °C and 5% CO2 with Dulbecco’s Modified Eagle’s Medium (DMEM) supplemented with 10% (v/v) FBS and the antibiotics penicillin (100 U/mL) and streptomycin (100 μg/mL).
# OCT1 = target: T4, OCT1 (Homo sapiens, UniProt O15245); assay: Uptake in OCT1-overexpressing HEK293 cells (substrate yes/no); type: cell-based; parameters: key: 1 = substrate; 0 = no substrate; conditions: Table S4
# T4 sequence (O15245 1-554): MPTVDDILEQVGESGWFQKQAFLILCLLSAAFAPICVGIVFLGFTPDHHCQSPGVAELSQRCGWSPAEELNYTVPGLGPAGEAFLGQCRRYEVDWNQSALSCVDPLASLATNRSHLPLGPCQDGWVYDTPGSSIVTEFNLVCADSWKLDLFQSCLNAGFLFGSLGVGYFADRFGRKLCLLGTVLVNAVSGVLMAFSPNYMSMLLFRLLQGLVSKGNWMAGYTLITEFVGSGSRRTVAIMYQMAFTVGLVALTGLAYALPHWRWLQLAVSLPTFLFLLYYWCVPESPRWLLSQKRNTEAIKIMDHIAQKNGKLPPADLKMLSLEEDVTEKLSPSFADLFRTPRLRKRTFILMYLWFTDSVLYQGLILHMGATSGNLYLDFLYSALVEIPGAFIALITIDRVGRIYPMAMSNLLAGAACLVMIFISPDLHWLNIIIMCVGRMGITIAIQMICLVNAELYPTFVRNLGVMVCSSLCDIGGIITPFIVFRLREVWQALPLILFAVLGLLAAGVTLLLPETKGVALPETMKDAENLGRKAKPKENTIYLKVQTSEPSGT
# Experimental: as §1
# hCMEC [9] = assay: TS MDAI hCMEC (Table S2); type: cell-based, human; parameters: scale not given here; conditions: Table S2
# hCMEC [10] = assay: TS DPH hCMEC (Table S2); type: cell-based, human; parameters: scale not given here; conditions: Table S2
# [11] = test system: MATE1, MATE2K, OCT1, OCT2; assay: Substrate specificity and overlap among the four transporters (ratio cutoff 2); type: cell-based, human; conditions: transport ratio cutoff of 2
# [12] = fold uptake over empty vector, 2.5 μM, 1 min
# T2 sequence (Q86VL8 1-566 isoform Q86VL8-3): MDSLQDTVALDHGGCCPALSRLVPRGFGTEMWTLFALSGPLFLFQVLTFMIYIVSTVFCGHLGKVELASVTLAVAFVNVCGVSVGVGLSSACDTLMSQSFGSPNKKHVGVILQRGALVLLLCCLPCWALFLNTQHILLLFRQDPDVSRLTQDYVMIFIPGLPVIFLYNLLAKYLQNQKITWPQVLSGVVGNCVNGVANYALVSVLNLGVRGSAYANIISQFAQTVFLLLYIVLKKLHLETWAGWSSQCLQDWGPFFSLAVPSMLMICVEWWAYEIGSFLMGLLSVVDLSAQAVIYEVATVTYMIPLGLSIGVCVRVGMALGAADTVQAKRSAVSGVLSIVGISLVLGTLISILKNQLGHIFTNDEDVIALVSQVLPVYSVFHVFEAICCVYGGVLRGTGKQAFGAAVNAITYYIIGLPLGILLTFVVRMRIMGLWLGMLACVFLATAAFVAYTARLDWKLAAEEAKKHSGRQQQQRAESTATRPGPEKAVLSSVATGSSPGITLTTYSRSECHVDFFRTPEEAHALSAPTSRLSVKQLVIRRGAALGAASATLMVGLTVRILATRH
SMILES,MATE2K Vmax (MATE2K [3]),Km (MATE2K [3]) [µM],"MATE1 Vmax (MATE1 [4]; HEK293, 1 min, net uptake)",OCT2 substrate* (OCT2),OCT1 substrate* (OCT1),MATE1 substrate* (MATE1 [6]),"MATE1 (MATE1 [6]; 2.5 μM, 1 min)",MATE2 substrate* (MATE2K [7]),"MATE2 (MATE2K [7]; 2.5 μM, 1 min)",also measured
c1c2c(cc3c1OCO3)-c1cc3ccc4c(c3c[n+]1CC2)OCO4 [Coptisine],246 pmol × mg protein^–1 × min^–1,1.88,–,–,–,–,–,–,–,Km (MATE1 [1]): 20 µM; MATE1 Clint (MATE1 [1]): 145 μL × mg protein^–1 × min^–1; microsomal CLint (MATE2K [2]): 131 µL/min/mg; MATE1 Vmax (MATE1 [4]): 2901 pmol × mg protein^–1 × min^–1; microsomal CLint (MATE1 [5]): 145 µL/min/mg; MATE1 ratio (MATE1 [6]): 9.90; MATE2K ratio (MATE2K [7]): 6.48
CN/C(=N\CCSCc1nc[nH]c1C)NC#N [Cimetidine],–,–,–,–,–,–,–,–,–,"eliminated unchanged via the kidneys [8]: more than 70%; MATE1 ratio in this study (MATE1 [6]; Table S1, 2.5 μM, 1 min): 11.52; MATE1 ratio (MATE1 [6]; [12]): 11.52; MATE1 ratio (MATE1 [6]; fold uptake over empty vector, 2.5 μM, 1 min, listed as cimetidine): above 2; MATE1 (uptake ratio) (MATE1 [6]; 2.5 μM, 1 min): 11.52; MATE2K ratio in this study (MATE2K [7]; Table S1, 2.5 μM, 1 min): 3.60; MATE2K ratio (MATE2K [7]; [12]): 3.60; MATE2 (uptake ratio) (MATE2K [7]; 2.5 μM, 1 min): 3.6; inhibition of metformin elimination (renal MATE1): approximately 43%"
CN(C)CCc1c[nH]c2ccc(C[C@H]3COC(=O)N3)cc12 [Zolmitriptan],–,–,2992 pmol × mg protein^–1 × min^–1,0,1,1,11.83,1,5.51,–
"CN(C)CCc1c[nH]c2ccc(C[C@H]3COC(=O)N3)cc12 [Zolmitriptan (R), Zolmitriptan]",–,–,2624 pmol × mg protein^–1 × min^–1,1,1,1,12.88,1,6.48,–
CCN1CCCC1CNC(=O)c1cc(S(=O)(=O)CC)c(N)cc1OC (stereo not drawn) [Amisulpride],710 pmol × mg protein^–1 × min^–1,39.9,238 pmol × mg protein^–1 × min^–1,–,–,–,–,–,–,"TS MDAI hCMEC (hCMEC [9]): 0.91; TS DPH hCMEC (hCMEC [10]): 0.89; Km (MATE1 [4]; read-out: MATE1 KM, HEK293, 1 min, net uptake): 10.6 µM; eliminated unchanged via the kidneys [8]: more than 70%; MATE1 ratio (MATE1 [6]; [12]): 11.04; MATE1 ratio (MATE1 [6]; fold uptake over empty vector, 2.5 μM, 1 min, listed as amisulpride): above 2; MATE1 (uptake ratio) (MATE1 [6]; 2.5 μM, 1 min): 11.04; MATE2K ratio (MATE2K [7]; [12]): 11.15; MATE2 (uptake ratio) (MATE2K [7]; 2.5 μM, 1 min): 11.15"
CN(C)C(=O)Oc1cccc([N+](C)(C)C)c1 [Neostigmine],3139 pmol × mg protein^–1 × min^–1,385,–,–,–,–,–,–,–,"Km (MATE1 [1]): 160 µM; MATE1 Clint (MATE1 [1]): 45.2 μL × mg protein^–1 × min^–1; MATE1 Vmax (MATE1 [4]): 7255 pmol × mg protein^–1 × min^–1; MATE1 ratio (MATE1 [6]): 32.31; Substrate specificity among MATE1, MATE2K, OCT1, OCT2 [11]: All four transporters; MATE2K ratio (MATE2K [7]): 5.31"
CN(C)CCOC1=Cc2ccccc2Sc2ccc(Cl)cc21 [Zotepin],–,–,–,–,0,0,0.51,0,1.34,–
"CN(C)CCc1c[nH]c2ccc(C[C@H]3COC(=O)N3)cc12 [Zolmitriptan (S), Zolmitriptan]",1662 pmol × mg protein^–1 × min^–1,94.5,2849 pmol × mg protein^–1 × min^–1,0,1,1,13.34,1,5.38,–
O=C1Cc2cc(CCN3CCN(c4nsc5ccccc45)CC3)c(Cl)cc2N1 [Ziprasidone],–,–,–,0,0,0,1.2,0,1.25,–
